What was measured:
CYPSE (Flatsedge) = assay: Preemergence weed control under flooded paddy conditions; format: in vivo, Cyperus serotinus; details: rated 3-4 weeks after treatment
Method in brief: (§1)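 Silt loam, seeds in top 0.5 cm; flood held 1.5-3 cm; test cpd as acetone/water 50/50 into flood water, ~0.0313-0.500 kg/ha a.i.; greenhouse 3-4 wk; visual 0-9 score vs control.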

GALAP (Galium) [1] = assay: Postemergence herbicidal evaluation; format: in vivo, Galium aparine; details: postemergence
Method in brief: (§2)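 Scores (0–9) reflect plant stand, vigor, malformation, size, chlorosis and general appearance relative to control, read 4 to 5 weeks after treatment and averaged where tests were repeated. Application: about 0.0156–0.500 kg/ha sprayed at 40 psi onto two-week seedlings.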

GALAP (Galium) [2] = assay: Preemergence herbicidal evaluation; format: in vivo, Galium aparine; details: rated 4-5 weeks after treatment
Method in brief: (§3)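 Preemergence soil application of compound, sprayed in aqueous acetone at rates equivalent to about 0.0156 to 0.500 kg per hectare onto freshly sown cups. Plant response was judged by eye on a 0-9 scale four to five weeks later.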

[3] = tested on: ECHORC (Watergrass (Calif.)); assay: Preemergence weed control under flooded paddy conditions; format: in vivo, Echinochloa oryzoides; details: rated 3-4 weeks after treatment
Method in brief: as §1

[4] = tested on: TRZAWR (Wheat, Winter, cv Riband); assay: Postemergence herbicidal evaluation; format: in vivo, Triticum aestivum; details: postemergence
Method in brief: as §2

[5] = tested on: SAGPY (Arrowhead (Pygmaea)); assay: Preemergence weed control under flooded paddy conditions; format: in vivo, Sagittaria pygmaea; details: rated 3-4 weeks after treatment
Method in brief: as §1

ORYSAT (Rice, Tebonnet) = assay: Preemergence herbicidal evaluation; format: in vivo, Oryza sativa, (L.) Tebonnet; details: rated 4-5 weeks after treatment
Text: Results of herbicide evaluation are expressed on a rating scale (0-9). The scale is based upon a visual observation of plant stand, vigor, malformation, size, chlorosis and overall plant appearance as compared with a control.
The preemergence herbicidal activity of the test compounds of the present invention is exemplified by the following tests in which the seeds of a variety of monocotyledonous and dicotyledonous plants are separately mixed with potting soil and planted on top of approximately one inch of soil in separate pint cups. After planting, the cups are sprayed with the selected aqueous acetone solution containing test compound in sufficient quantity to provide the equivalent of about 0.0156 to 0.500 kg per hectare of test compound per cup. The treated cups are then placed on greenhouse benches, watered and cared for in accordance with conventional greenhouse procedures. From four to five weeks after treatment, the tests are terminated and each cup is examined and rated according to the rating system provided in Example 37.
The compounds evaluated are reported by compound number given in Example 37.

MOOVA (Monochoria) = assay: Preemergence weed control under flooded paddy conditions; format: in vivo, Monochoria vaginalis; details: rated 3-4 weeks after treatment
Method in brief: as §1

[6] = tested on: GLXMAW (Soybean, Williams); assay: Postemergence herbicidal evaluation; format: in vivo, Glycine max, (L.) Merr. cv Williams; details: postemergence
Method in brief: as §2

AMBEL (Ragweed, Common) = assay: Postemergence herbicidal evaluation; format: in vivo, Ambrosia artemisifolia; details: postemergence
Method in brief: as §2

SETVI (Foxtail, Green) = assay: Preemergence herbicidal evaluation; format: in vivo, Setaria viridis; details: rated 4-5 weeks after treatment
Method in brief: as §3

CASOB (Sicklepod) = assay: Postemergence herbicidal evaluation; format: in vivo, Cassia obtusifolia; details: postemergence
Method in brief: as §2

For `CC(C)COC(=O)CN1C(=O)CSC1=Nc1cc(-n2c(=O)cc(C(F)(F)F)n(C)c2=O)c(F)cc1Cl` [Compound 121, Isobutyl 2-{{2-chloro-5-[3,6-dihydro-3-methyl-2,6-dioxo-4-(trifluoromethyl)-1(2H)-pyrimidinyl]-4-fluorophenyl}imino}-4-oxo-3-thiazolidineacetate], the “herbicidal effect rating, CYPSE” value (CYPSE (Flatsedge); 0.0313 kg/ha) was 2.0, the “herbicidal effect rating, CYPSE” value (CYPSE (Flatsedge); 0.1250 kg/ha) was 5.0 and the “herbicidal effect rating, CYPSE” value (CYPSE (Flatsedge); 0.2500 kg/ha) was 5.0. For the same molecule, the “Herbicidal rating GALAP” value (GALAP (Galium) [1]; rate 0.0156 kg/ha) was 0.0, the “Herbicidal rating GALAP” value (GALAP (Galium) [1]; rate 0.0313 kg/ha) was 0.0 and the “Herbicidal rating GALAP” value (GALAP (Galium) [1]; rate 0.0625 kg/ha) was 3.0. The “Preemergence herbicidal rating GALAP” value (GALAP (Galium) [2]; rate 0.0156 kg/ha) was 0.0, the “Preemergence herbicidal rating GALAP” value (GALAP (Galium) [2]; rate 0.0313 kg/ha) was 0.0 and the “Preemergence herbicidal rating GALAP” value (GALAP (Galium) [2]; rate 0.0625 kg/ha) was 0.0. For the same molecule, the “Preemergence herbicidal rating GALAP” value (GALAP (Galium) [2]; rate 0.1250 kg/ha) was 5.0, the “Preemergence herbicidal rating GALAP” value (GALAP (Galium) [2]; rate 0.2500 kg/ha) was 9.0 and the “herbicidal effect rating, ECHORC” value ([3]; 0.0313 kg/ha) was 4.0. For the same molecule, the “herbicidal effect rating, ECHORC” value ([3]; 0.0625 kg/ha) was 5.0, the “herbicidal effect rating, ECHORC” value ([3]; 0.1250 kg/ha) was 6.0 and the “herbicidal effect rating, ECHORC” value ([3]; 0.2500 kg/ha) was 6.0. For the same molecule, the “Herbicidal rating TRZAWR” value ([4]; rate 0.0156 kg/ha) was 3.0, the “Herbicidal rating TRZAWR” value ([4]; rate 0.0313 kg/ha) was 4.0 and the “Herbicidal rating TRZAWR” value ([4]; rate 0.0625 kg/ha) was 5.0. For the same molecule, the “herbicidal effect rating, SAGPY” value ([5]; 0.0313 kg/ha) was 0.0, the “herbicidal effect rating, SAGPY” value ([5]; 0.0625 kg/ha) was 4.0 and the “herbicidal effect rating, SAGPY” value ([5]; 0.1250 kg/ha) was 4.0. For the same molecule, the “herbicidal effect rating, SAGPY” value ([5]; 0.2500 kg/ha) was 6.0, the “Preemergence herbicidal rating ORYSAT” value (ORYSAT (Rice, Tebonnet); rate 0.0156 kg/ha) was 0.0 and the “Preemergence herbicidal rating ORYSAT” value (ORYSAT (Rice, Tebonnet); rate 0.0313 kg/ha) was 0.0. The “Preemergence herbicidal rating ORYSAT” value (ORYSAT (Rice, Tebonnet); rate 0.0625 kg/ha) was 0.0, the “Preemergence herbicidal rating ORYSAT” value (ORYSAT (Rice, Tebonnet); rate 0.1250 kg/ha) was 4.0 and the “Preemergence herbicidal rating ORYSAT” value (ORYSAT (Rice, Tebonnet); rate 0.2500 kg/ha) was 5.0. The “herbicidal effect rating, MOOVA” value (MOOVA (Monochoria); 0.0313 kg/ha) was 9.0, the “herbicidal effect rating, MOOVA” value (MOOVA (Monochoria); 0.0625 kg/ha) was 9.0 and the “herbicidal effect rating, MOOVA” value (MOOVA (Monochoria); 0.1250 kg/ha) was 9.0. The “herbicidal effect rating, MOOVA” value (MOOVA (Monochoria); 0.2500 kg/ha) was 9.0, the “Herbicidal rating GLXMAW” value ([6]; rate 0.0156 kg/ha) was 6.0 and the “Herbicidal rating GLXMAW” value ([6]; rate 0.0313 kg/ha) was 8.0. The “Herbicidal rating GLXMAW” value ([6]; rate 0.0625 kg/ha) was 8.0, the “Herbicidal rating AMBEL” value (AMBEL (Ragweed, Common); rate 0.0156 kg/ha) was 9.0 and the “Herbicidal rating AMBEL” value (AMBEL (Ragweed, Common); rate 0.0313 kg/ha) was 9.0. For the same molecule, the “Herbicidal rating AMBEL” value (AMBEL (Ragweed, Common); rate 0.0625 kg/ha) was 9.0, the “Preemergence herbicidal rating SETVI” value (SETVI (Foxtail, Green); rate 0.0156 kg/ha) was 0.0 and the “Preemergence herbicidal rating SETVI” value (SETVI (Foxtail, Green); rate 0.0313 kg/ha) was 3.0. For the same molecule, the “Preemergence herbicidal rating SETVI” value (SETVI (Foxtail, Green); rate 0.0625 kg/ha) was 7.0, the “Preemergence herbicidal rating SETVI” value (SETVI (Foxtail, Green); rate 0.1250 kg/ha) was 9.0 and the “Preemergence herbicidal rating SETVI” value (SETVI (Foxtail, Green); rate 0.2500 kg/ha) was 9.0. The “Herbicidal rating CASOB” value (CASOB (Sicklepod); rate 0.0156 kg/ha) was 0.0, the “Herbicidal rating CASOB” value (CASOB (Sicklepod); rate 0.0313 kg/ha) was 1.0 and the “Herbicidal rating CASOB” value (CASOB (Sicklepod); rate 0.0625 kg/ha) was 7.0.
With `Cn1c(C(F)(F)F)cc(=O)n(-c2cc(N=C3SCC(=O)N3CC(=O)OCC3CCCCC3)c(Cl)cc2F)c1=O` [Compound 123, Cyclohexylmethyl 2-{{2-chloro-5-[3,6-dihydro-3-methyl-2,6-dioxo-4-(trifluoromethyl)-1(2H)-pyrimidinyl]-4-fluorophenyl}imino}-4-oxo-3-thiazolidineacetate] the “herbicidal effect rating, CYPSE” value (CYPSE (Flatsedge); 0.0313 kg/ha) was 5.0, the “herbicidal effect rating, CYPSE” value (CYPSE (Flatsedge); 0.0625 kg/ha) was 9.0 and the “herbicidal effect rating, CYPSE” value (CYPSE (Flatsedge); 0.1250 kg/ha) was 9.0. The “herbicidal effect rating, CYPSE” value (CYPSE (Flatsedge); 0.2500 kg/ha) was 9.0, the “Herbicidal rating GALAP” value (GALAP (Galium) [1]; rate 0.0156 kg/ha) was 2.0 and the “Herbicidal rating GALAP” value (GALAP (Galium) [1]; rate 0.0313 kg/ha) was 4.0. For the same molecule, the “Herbicidal rating GALAP” value (GALAP (Galium) [1]; rate 0.0625 kg/ha) was 6.0, the “Herbicidal rating GALAP” value (GALAP (Galium) [1]; rate 0.1250 kg/ha) was 7.0 and the “Preemergence herbicidal rating GALAP” value (GALAP (Galium) [2]; rate 0.0156 kg/ha) was 2.0. The “Preemergence herbicidal rating GALAP” value (GALAP (Galium) [2]; rate 0.0313 kg/ha) was 3.0, the “Preemergence herbicidal rating GALAP” value (GALAP (Galium) [2]; rate 0.0625 kg/ha) was 3.0 and the “Preemergence herbicidal rating GALAP” value (GALAP (Galium) [2]; rate 0.1250 kg/ha) was 7.0. The “Preemergence herbicidal rating GALAP” value (GALAP (Galium) [2]; rate 0.2500 kg/ha) was 6.0, the “Preemergence herbicidal rating GALAP” value (GALAP (Galium) [2]; rate 0.5000 kg/ha) was 9.0 and the “herbicidal effect rating, ECHORC” value ([3]; 0.0313 kg/ha) was 7.0. For the same molecule, the “herbicidal effect rating, ECHORC” value ([3]; 0.0625 kg/ha) was 9.0, the “herbicidal effect rating, ECHORC” value ([3]; 0.1250 kg/ha) was 9.0 and the “herbicidal effect rating, ECHORC” value ([3]; 0.2500 kg/ha) was 9.0. The “Herbicidal rating TRZAWR” value ([4]; rate 0.0156 kg/ha) was 4.0, the “Herbicidal rating TRZAWR” value ([4]; rate 0.0313 kg/ha) was 4.5 and the “Herbicidal rating TRZAWR” value ([4]; rate 0.0625 kg/ha) was 6.0. The “Herbicidal rating TRZAWR” value ([4]; rate 0.1250 kg/ha) was 6.5, the “herbicidal effect rating, SAGPY” value ([5]; 0.0313 kg/ha) was 5.0 and the “herbicidal effect rating, SAGPY” value ([5]; 0.0625 kg/ha) was 6.0. For the same molecule, the “herbicidal effect rating, SAGPY” value ([5]; 0.1250 kg/ha) was 6.0, the “herbicidal effect rating, SAGPY” value ([5]; 0.2500 kg/ha) was 8.0 and the “Preemergence herbicidal rating ORYSAT” value (ORYSAT (Rice, Tebonnet); rate 0.0156 kg/ha) was 0.0. For the same molecule, the “Preemergence herbicidal rating ORYSAT” value (ORYSAT (Rice, Tebonnet); rate 0.0313 kg/ha) was 0.0, the “Preemergence herbicidal rating ORYSAT” value (ORYSAT (Rice, Tebonnet); rate 0.0625 kg/ha) was 0.0 and the “Preemergence herbicidal rating ORYSAT” value (ORYSAT (Rice, Tebonnet); rate 0.1250 kg/ha) was 1.0. The “Preemergence herbicidal rating ORYSAT” value (ORYSAT (Rice, Tebonnet); rate 0.2500 kg/ha) was 3.0, the “Preemergence herbicidal rating ORYSAT” value (ORYSAT (Rice, Tebonnet); rate 0.5000 kg/ha) was 5.0 and the “herbicidal effect rating, MOOVA” value (MOOVA (Monochoria); 0.0313 kg/ha) was 6.0. For the same molecule, the “herbicidal effect rating, MOOVA” value (MOOVA (Monochoria); 0.0625 kg/ha) was 7.0, the “herbicidal effect rating, MOOVA” value (MOOVA (Monochoria); 0.1250 kg/ha) was 9.0 and the “herbicidal effect rating, MOOVA” value (MOOVA (Monochoria); 0.2500 kg/ha) was 9.0. The “Herbicidal rating GLXMAW” value ([6]; rate 0.0156 kg/ha) was 6.5, the “Herbicidal rating GLXMAW” value ([6]; rate 0.0313 kg/ha) was 6.5 and the “Herbicidal rating GLXMAW” value ([6]; rate 0.0625 kg/ha) was 8.0. For the same molecule, the “Herbicidal rating GLXMAW” value ([6]; rate 0.1250 kg/ha) was 9.0, the “Herbicidal rating AMBEL” value (AMBEL (Ragweed, Common); rate 0.0156 kg/ha) was 9.0 and the “Herbicidal rating AMBEL” value (AMBEL (Ragweed, Common); rate 0.0313 kg/ha) was 9.0. The “Herbicidal rating AMBEL” value (AMBEL (Ragweed, Common); rate 0.0625 kg/ha) was 9.0, the “Herbicidal rating AMBEL” value (AMBEL (Ragweed, Common); rate 0.1250 kg/ha) was 9.0 and the “Preemergence herbicidal rating SETVI” value (SETVI (Foxtail, Green); rate 0.0156 kg/ha) was 7.0. For the same molecule, the “Preemergence herbicidal rating SETVI” value (SETVI (Foxtail, Green); rate 0.0313 kg/ha) was 7.0, the “Preemergence herbicidal rating SETVI” value (SETVI (Foxtail, Green); rate 0.0625 kg/ha) was 7.0 and the “Preemergence herbicidal rating SETVI” value (SETVI (Foxtail, Green); rate 0.1250 kg/ha) was 9.0. The “Preemergence herbicidal rating SETVI” value (SETVI (Foxtail, Green); rate 0.2500 kg/ha) was 9.0, the “Preemergence herbicidal rating SETVI” value (SETVI (Foxtail, Green); rate 0.5000 kg/ha) was 9.0 and the “Herbicidal rating CASOB” value (CASOB (Sicklepod); rate 0.0156 kg/ha) was 3.0. The “Herbicidal rating CASOB” value (CASOB (Sicklepod); rate 0.0313 kg/ha) was 3.0, the “Herbicidal rating CASOB” value (CASOB (Sicklepod); rate 0.0625 kg/ha) was 9.0 and the “Herbicidal rating CASOB” value (CASOB (Sicklepod); rate 0.1250 kg/ha) was 8.0.

From patent US20020137929A1, “1 - (3-heterocyclylphenyl) isothiourea, -isourea, -guanidine and -amidine herbicidal agents” (Intellectual Property Department, BASF Aktiengesellschaft, priority 1998, published 2002)
